Data taken from ChEMBL document CHEMBL1201862, “PubChem BioAssay data set” (2004).
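How tested: cells in 96-well plates exposed to compound for 48 hours at five concentrations. GI50 is the concentration that inhibits growth by half.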 Activity calls are given as the source filed them. Cut-off read from the data, not from the text of the source: active = GI50 up to about 1.1 µM and inactive = higher.

Assays:
Assay in all cases: NCI-60 cell line screen, 48 h
[1] = system: IGROV-1
[2] = system: 786-0
[3] = system: KM12
[4] = system: K562
[5] = system: SNB-75
[6] = system: PC-3
[7] = system: UACC-62
[8] = system: CCRF-CEM
[9] = system: RPMI-8226
[10] = system: UACC-257
[11] = system: SF-539
[12] = system: SK-MEL-28
[13] = system: T47D
[14] = system: HL-60
[15] = system: OVCAR-5
[16] = system: SF-295
[17] = system: OVCAR-3
[18] = system: OVCAR-8
[19] = system: MDA-MB-435

O=c1[nH]nc(-c2ccccc2)n1/N=C/c1ccncc1
GI50 [1]: > 100 µM (inactive)
GI50 [2]: > 100 µM (inactive)
GI50 [3]: > 100 µM (inactive)
GI50 [4]: > 100 µM (inactive)
GI50 [5]: 81.3 µM (inactive)
GI50 [6]: > 100 µM (inactive)
GI50 [7]: > 100 µM (inactive)
GI50 [8]: > 100 µM (inactive)
GI50 [9]: > 100 µM (inactive)
GI50 [10]: > 100 µM (inactive)
GI50 [11]: 61.8 µM (inactive)
GI50 [12]: > 100 µM (inactive)
GI50 [13]: > 100 µM (inactive)
GI50 [14]: > 100 µM (inactive)
GI50 [15]: 37.7 µM (inactive)
GI50 [16]: > 100 µM (inactive)
GI50 [17]: > 100 µM (inactive)
GI50 [18]: > 100 µM (inactive)
GI50 [19]: > 100 µM (inactive)

CCCCOC(=O)C1C(c2ccc(Cl)cc2)NC(c2ccc(Cl)cc2)C(C(=O)OCCCC)S1(=O)=O (configuration not stated)
GI50 [1]: > 100 µM (inactive)
GI50 [2]: > 100 µM (inactive)
GI50 [3]: > 100 µM (inactive)
GI50 [4]: > 100 µM (inactive)
GI50 [5]: > 100 µM (inactive)
GI50 [7]: > 100 µM (inactive)
GI50 [8]: > 100 µM (inactive)
GI50 [9]: > 100 µM (inactive)
GI50 [10]: > 100 µM (inactive)
GI50 [11]: > 100 µM (inactive)
GI50 [12]: > 100 µM (inactive)
GI50 [14]: 8.83 µM (inactive)
GI50 [15]: > 100 µM (inactive)
GI50 [16]: > 100 µM (inactive)
GI50 [17]: > 100 µM (inactive)
GI50 [18]: > 100 µM (inactive)

N=C1NC2(O)C(=O)c3ccccc3C2(O)N1 (configuration not stated)
GI50 [1]: > 100 µM (inactive)
GI50 [2]: > 100 µM (inactive)
GI50 [3]: > 100 µM (inactive)
GI50 [4]: > 100 µM (inactive)
GI50 [5]: > 100 µM (inactive)
GI50 [7]: > 100 µM (inactive)
GI50 [8]: > 100 µM (inactive)
GI50 [9]: > 100 µM (inactive)
GI50 [10]: > 100 µM (inactive)
GI50 [11]: > 100 µM (inactive)
GI50 [12]: > 100 µM (inactive)
GI50 [14]: > 100 µM (inactive)
GI50 [15]: > 100 µM (inactive)
GI50 [16]: > 100 µM (inactive)
GI50 [17]: > 100 µM (inactive)
GI50 [18]: > 100 µM (inactive)

C=CCC(O)c1cc(OC)ccc1OC (configuration not stated)
GI50 [1]: > 100 µM (inactive)
GI50 [2]: > 100 µM (inactive)
GI50 [3]: > 100 µM (inactive)
GI50 [4]: > 100 µM (inactive)
GI50 [5]: > 100 µM (inactive)
GI50 [7]: > 100 µM (inactive)
GI50 [8]: > 100 µM (inactive)
GI50 [9]: > 100 µM (inactive)
GI50 [10]: > 100 µM (inactive)
GI50 [11]: > 100 µM (inactive)
GI50 [12]: > 100 µM (inactive)
GI50 [14]: > 100 µM (inactive)
GI50 [15]: > 100 µM (inactive)
GI50 [16]: > 100 µM (inactive)
GI50 [17]: > 100 µM (inactive)
GI50 [18]: > 100 µM (inactive)

COc1cc(C(=O)C/C(CCC(=O)Nc2ccc(Cl)cc2Cl)=N/Nc2nnc(C)n2N)ccc1O
GI50 [1]: > 100 µM (inactive)
GI50 [2]: > 100 µM (inactive)
GI50 [3]: > 100 µM (inactive)
GI50 [4]: > 10 µM (inactive)
GI50 [5]: > 100 µM (inactive)
GI50 [7]: > 100 µM (inactive)
GI50 [8]: > 100 µM (inactive)
GI50 [9]: > 100 µM (inactive)
GI50 [10]: > 100 µM (inactive)
GI50 [11]: > 100 µM (inactive)
GI50 [12]: > 100 µM (inactive)
GI50 [14]: > 100 µM (inactive)
GI50 [15]: > 100 µM (inactive)
GI50 [16]: > 100 µM (inactive)
GI50 [17]: > 100 µM (inactive)
GI50 [18]: > 100 µM (inactive)

CNC(=O)Oc1ccc(C(=S)Nc2ccc(Br)cc2)cc1
GI50 [1]: 0.783 µM (active)
GI50 [2]: 21.8 µM (inactive)
GI50 [3]: 14.3 µM (inactive)
GI50 [4]: 14.1 µM (inactive)
GI50 [6]: 23.8 µM (inactive)
GI50 [7]: 12.9 µM (inactive)
GI50 [8]: 1.81 µM (inactive)
GI50 [9]: 23 µM (inactive)
GI50 [10]: 28.4 µM (inactive)
GI50 [11]: 18.4 µM (inactive)
GI50 [12]: 22 µM (inactive)
GI50 [13]: 18.5 µM (inactive)
GI50 [14]: 2.1 µM (inactive)
GI50 [15]: 25.4 µM (inactive)
GI50 [17]: 19.7 µM (inactive)
GI50 [18]: 7.98 µM (inactive)
GI50 [19]: 21.8 µM (inactive)

CCc1ccc(Nc2ccc([N+](=O)[O-])cc2[N+](=O)[O-])cc1
GI50 [1]: 97.3 µM (inactive)
GI50 [2]: > 100 µM (inactive)
GI50 [3]: 52.5 µM (inactive)
GI50 [4]: 29.8 µM (inactive)
GI50 [5]: 39.7 µM (inactive)
GI50 [7]: 56.6 µM (inactive)
GI50 [8]: 35.2 µM (inactive)
GI50 [9]: 39.1 µM (inactive)
GI50 [10]: 67.8 µM (inactive)
GI50 [11]: > 100 µM (inactive)
GI50 [12]: > 100 µM (inactive)
GI50 [14]: 26.8 µM (inactive)
GI50 [15]: > 100 µM (inactive)
GI50 [16]: 89.7 µM (inactive)
GI50 [17]: 44.4 µM (inactive)
GI50 [18]: 97.7 µM (inactive)

c1ccc(CN2CCCCC(Sc3ccccc3)CC2)cc1 (configuration not stated)
GI50 [1]: 91.6 µM (inactive)
GI50 [2]: 16.8 µM (inactive)
GI50 [3]: > 100 µM (inactive)
GI50 [4]: 15.5 µM (inactive)
GI50 [5]: 30.5 µM (inactive)
GI50 [7]: 36 µM (inactive)
GI50 [8]: 19.2 µM (inactive)
GI50 [9]: 17.8 µM (inactive)
GI50 [10]: > 100 µM (inactive)
GI50 [11]: 29.8 µM (inactive)
GI50 [12]: 45.3 µM (inactive)
GI50 [14]: 23.3 µM (inactive)
GI50 [15]: 18.3 µM (inactive)
GI50 [16]: 40.5 µM (inactive)
GI50 [17]: 33.9 µM (inactive)
GI50 [18]: 27.8 µM (inactive)
